The source of these data is PubChem BioAssay (NCI).

Common to all, as to assay: NCI tumour cell line growth inhibition, 48 h
Test [1] has as its system NCI-H522 lung.
Test [2] relates to CAKI-1 renal.
Test [3] relates to UACC-62 melanoma.
The subject of test [4] is PC-3 prostate.
Test [5] deals with TK-10 renal.
Test [6] concerns SNB-75 CNS.
The test system of test [7] is SF-539 CNS.
Test [8] relates to HT29 colon.
For test [9], the system named is SW-620 colon.
Test [10] deals with SK-MEL-5 melanoma.

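Five concentrations, 48 hours, 96-well plates. Here, GI50 denotes the concentration required for 50% inhibition of growth. TGI marks complete inhibition of growth.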 A value given as a limit tells only on which side of the number the result lay.

Regarding `C/C=C(\C)C(=O)O[C@H]1C=CC(=O)O[C@H]1COC(=O)[C@H](C)O`, the GI50 was 7.1 µM in [1]; 5.46 µM in test [2]; 7.71 µM in test [3]; 11 µM in test [4]; 10.8 µM in test [5]; 6.95 µM in test [6]. Also, the GI50 was 9.73 µM in test [7], 3.76 µM in [8], 4.28 µM in test [9] and 4.62 µM in test [10]. Besides, the TGI in test [1] was found to be 23.7 µM; in [2], 14.9 µM; in test [3] it was 21 µM; in test [4], 28.9 µM; in test [5], 24.3 µM; in test [6], 20.9 µM. Moreover, the TGI in test [7] was 23.3 µM; in test [8] it was 17.4 µM; in test [9] it was 15.1 µM; in [10] it was 16.7 µM.

Take `O=[N+]([O-])c1oc2ccc3ccccc3c2c1CCO`: the TGI amounted to 3.77 µM in test [1]; 8.58 µM in test [2]; 12.5 µM in [3]; 87.7 µM in [4]; 27.7 µM in test [5]; 16.7 µM in test [6]. Moreover, the TGI came out at 13.4 µM in test [7], 25.7 µM in [8], 40.2 µM in [9] and 1.98 µM in test [10].

As to `C=C1C(=O)C2=CC1CCC(=O)C1(C)CCC(OC(C)=O)C(C)(C)C1CC2O` (stereo not given), the TGI in [1] came out at 2.19 µM; in test [2] it was 6.2 µM; in test [3], 5.96 µM; in test [4], 28.8 µM; in [5], 26.5 µM; in test [6] it was 24.8 µM. For the same compound, the TGI in test [7] is 5.19 µM; in [8] it was 10.1 µM; in test [9], more than 100 µM; in test [10], 6.09 µM.

As for `O=S(=O)(NCCCNc1cc(-c2cn(-c3ccccc3)nc2-c2cccc(O)c2)ccn1)c1ccc(Br)cc1`, the GI50 in test [1] was 2.11 µM; in test [2], 2.25 µM; in test [3], 1.57 µM; in [4], 2.11 µM; in test [5], 3.35 µM; in test [6], 1.22 µM. For the same compound, the GI50 in [7] is 1.69 µM; in test [8], 0.639 µM; in test [9], 1.62 µM; in [10], 1.27 µM. Also, the TGI in test [1] came to 4.85 µM; in test [2], 12.6 µM; in test [3], 3.59 µM; in [4], 7.83 µM; in test [5] it was 10.2 µM; in [6], 7.81 µM. The TGI is 4.01 µM in [7], 2.35 µM in test [8], 3.65 µM in test [9] and 2.63 µM in test [10].

As to `CC(C)Cc1ccc(C(C)C(=O)NCc2ccc(Cn3c(=O)sn(CCCI)c3=O)cc2)cc1` (stereo not given), the GI50 was 0.309 µM in test [1]; 0.404 µM in [2]; 1.17 µM in [3]; 0.732 µM in test [4]; 0.373 µM in test [5]; 0.558 µM in [6]. The GI50 in test [7] was 0.804 µM; in test [8], 0.238 µM; in [9], 0.259 µM; in [10] it was 1.46 µM. Besides, the TGI in test [1] worked out at 1.04 µM; in test [2], 1.61 µM; in test [3], 2.44 µM; in test [4], 2.07 µM; in test [5] it was 0.95 µM; in test [6] it was 1.96 µM. Also, the TGI in [7] was found to be 2.08 µM; in test [8] it was 0.75 µM; in test [9] it was 0.75 µM; in test [10], 2.78 µM.

As for `Cc1ccccc1C(C(=O)NC1CCCCC1)N(C(=O)CNc1ncccc1F)c1cccc(F)c1` (stereo not given), the GI50 is 74.9 µM in test [1]; more than 53.1 µM in test [2]; more than 75.4 µM in test [3]; more than 100 µM in test [4]; more than 56.4 µM in test [5]; 6.14 µM in [6]. Moreover, the GI50 in test [7] is 22.7 µM; in [8], more than 100 µM; in [9], more than 100 µM; in [10], more than 100 µM. In addition, the TGI is more than 100 µM in test [1]; more than 100 µM in [2]; more than 100 µM in test [3]; more than 100 µM in [4]; more than 100 µM in [5]; 24.6 µM in test [6]. The TGI is 81.7 µM in test [7], more than 100 µM in [8], more than 100 µM in [9] and more than 100 µM in test [10].

On to `CN(C)Cc1c(C(=O)NCCOc2ccc(C(=O)NO)cc2)oc2ccccc12`, for which the GI50 in test [1] was 0.0819 µM; in test [2], 0.311 µM; in test [3], 0.151 µM; in [4] it was 0.214 µM; in test [5], 0.185 µM; in test [6], 0.153 µM. The GI50 in [7] was 0.385 µM; in [8], 0.205 µM; in [9], 0.166 µM; in test [10], 0.159 µM. Moreover, the TGI in test [1] was 0.574 µM; in test [2], 1.57 µM; in test [3] it was 0.63 µM; in test [4], 5.06 µM; in test [5], 0.88 µM; in test [6], more than 40.7 µM. The TGI came out at 18 µM in test [7], 1.36 µM in test [8], 0.547 µM in test [9] and 0.347 µM in test [10].
